{"source": "patent US4667033A", "about": "“Substituted 6-(thien-2-yl)-3(2H)-pyridazinones” (A. Nattermann & Cie GmbH, priority 1983, dated 1987)", "key": {"imipramin-fixation sites": {"target": "T1, imipramin-fixation sites (Rattus norvegicus, UniProt P31652)", "T1 construct": "from tissue", "T1 sequence (P31652 whole entry)": "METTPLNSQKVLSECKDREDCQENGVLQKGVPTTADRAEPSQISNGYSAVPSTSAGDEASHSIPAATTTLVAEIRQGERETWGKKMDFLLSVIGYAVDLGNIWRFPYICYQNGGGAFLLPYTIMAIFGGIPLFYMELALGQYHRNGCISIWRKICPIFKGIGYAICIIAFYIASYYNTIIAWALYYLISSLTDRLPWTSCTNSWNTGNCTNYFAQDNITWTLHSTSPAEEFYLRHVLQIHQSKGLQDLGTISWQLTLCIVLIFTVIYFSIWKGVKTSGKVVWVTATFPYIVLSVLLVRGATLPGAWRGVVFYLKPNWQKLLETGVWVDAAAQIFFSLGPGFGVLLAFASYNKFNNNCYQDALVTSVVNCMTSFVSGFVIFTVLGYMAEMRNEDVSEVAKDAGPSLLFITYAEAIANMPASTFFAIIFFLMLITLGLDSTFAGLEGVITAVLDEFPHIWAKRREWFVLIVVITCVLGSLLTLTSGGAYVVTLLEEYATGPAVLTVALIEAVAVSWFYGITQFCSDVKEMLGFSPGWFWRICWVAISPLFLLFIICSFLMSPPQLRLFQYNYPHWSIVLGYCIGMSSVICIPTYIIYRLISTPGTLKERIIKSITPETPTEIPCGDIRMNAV", "assay": "Inhibition of 3H-Imipramin binding (imipramin-fixation sites)", "conditions": "for pIC50: log-probit-analysis", "excerpt": "(§1) III. Determination of activity to central nervous system.\n(§2) The following compounds have been tested for their activity to benzodiazepin-receptors and imipramin-fixation sites in comparison to the known compounds Amitriptylinoxid and Medazepam:\n(§3) The determination of their inhibitory activity has been effected corresponding to H. W. Damm et al., Res. Comm. chem. path. Pharmacol. 22, 597-600 (1978) or, respectively, M. Briley et al., Eur. J. Pharmacol. 72, 377-380 (1981). The separation of the bound from the free ligand concentration is effected by filtration. The used ligands Flunitrazepam and Imipramin has been marked by tritium.\n(§4) Half maximum inhibitory values have been determined by means of a […]"}, "benzodiazepin-receptors": {"tested_on": "benzodiazepin-receptors", "assay": "Inhibition of 3H-Flunitrazepam binding (benzodiazepin-receptors)", "conditions": "for pIC50: log-probit-analysis", "excerpt": "as §1, §2, §3, §4"}, "[1]": {"tested_on": "isolated right-hand atrium", "assay": "Chronotropic effect in spontaneously pulsing right-hand atrium of guinea pigs", "parameters": "species or system guinea pig", "conditions": "Cavia porcellus, mean percentage change to starting value, six determinations; for activation at 100 µM: 1 × 10^-4 mol/l, A in 1 × 10^-4 molar citric acid, B in tetraglycol and dilute hydrochloric acid", "procedure": "(§5) I. Test to show inotropic effectiveness in the isolated atrium of guinea pigs.\n(§6) The measurements have been effected on isolated atria of guinea pigs. The effect to pulse frequency (chronotropy) is determined at the spontaneously pulsing right-hand atrium. The effect to the contractility (inotropy) is determined at the electrically stimulated left-hand atrium. The mean values of the percentage change to the starting value from six different determinations in each test is given hereinafter."}, "[2]": {"tested_on": "isolated left-hand atrium", "assay": "Inotropic effectiveness in electrically stimulated left-hand atrium of guinea pigs", "parameters": "species or system guinea pig", "conditions": "Cavia porcellus, mean percentage change to starting value, six determinations, read-out: Inotropic Effect; for activation at 100 µM: 1 × 10^-4 mol/l, A in 1 × 10^-4 molar citric acid, B in tetraglycol and dilute hydrochloric acid", "procedure": "as §5, §6"}, "narcotized cat": {"tested_on": "narcotized cat", "assay": "Determination of the myocardial effect in the narcotized cat", "format": "in vivo", "excerpt": "II. Determination of the myocardial effect in the narcotized cat.\n10 cats of both sexes are narcotized with chloralose-urethane (0.25% urethane, 0.05% chloralose per kilogram). To ease the spontaneous respiration there was effected a tracheotomy. The following hemodynamic parameters were noted down:\nThe arteriel systolic and diastolic blood pressure by means of a polyethylene cathether in the right-hand Arteria femoralis registered by means of a Statham element type P23 DB. The pulse frequency was obtained from the blood pressure amplitude and registered by means of a cardiotachometer (type EKA-pulse).\nThe increase of isovolumetric blood pressure was determined by means of a catheter tip manometer of the type PC 350 A of the Millar Company, USA, introduced to the Arteria carotis communis left-ventricullary and was determined by subsequent differentiation (amplifier of Messrs. Sachs).\nThe known values have been registered continuously by a Beckmann-Dynograph of the type R. There are given the values in an interval of 2 minutes.\nThe test animals have been heparinized with 500 I.E. of Liquemin®.\nThe test compounds are dissolved as follows:\nCompound A in 50% glycofurol with heating,\nCompound B in 10% glycofurol and 5% HCl with heating.\nThe test compounds have been administered at consecutively increasing dosages at a volume of 0.1 cc./kg. (Arteria femoralis). The total time of injection was […]. The next dose has been administered only after the complete dying-out of the effect of the previous administration."}, "[3]": {"conditions": "1 × 10^-3 mol/l, in tetraglycol and dilute hydrochloric acid"}}, "note": "pIC50: −log10 of the molar value.", "data": [{"compound": "Cl.O=c1ccc(-c2ccc(Cn3ccnc3)s2)nn1CCCN1CCCCC1", "note": "[G, 6-[5-(Imidazol-1-yl-methyl)-thien-2-yl]-2-(3-piperidino-propyl)-3(2H)-pyridazinon-hydrochloride]", "values": [{"measurement": "3H-Imipramin % Inhibition", "setting": "imipramin-fixation sites; 1 × 10^-4", "result": 86, "unit": "%"}, {"measurement": "3H-Imipramin % Inhibition", "setting": "imipramin-fixation sites; 1 × 10^-6 mole/l", "result": 27, "unit": "%"}, {"measurement": "pIC50", "setting": "imipramin-fixation sites", "result": 5.52}, {"measurement": "3H-Flunitrazepam % Inhibition", "setting": "benzodiazepin-receptors; 1 × 10^-4 mole/l", "result": 40, "unit": "%"}, {"measurement": "3H-Flunitrazepam % Inhibition", "setting": "benzodiazepin-receptors; 1 × 10^-6 mole/l", "result": 4, "unit": "%"}]}, {"compound": "Cl.O=c1ccc(-c2ccc(Cn3cccn3)s2)nn1CCN1CCOCC1", "note": "[D, 2-(2-Morpholino-ethyl)-6-[5-(pyrazol-1-yl-methyl)-thien-2-yl]-3(2H)-pyridazinon-hydrochloride]", "values": [{"measurement": "3H-Imipramin % Inhibition", "setting": "imipramin-fixation sites; 1 × 10^-4", "result": 87, "unit": "%"}, {"measurement": "3H-Imipramin % Inhibition", "setting": "imipramin-fixation sites; 1 × 10^-6 mole/l", "result": 34, "unit": "%"}, {"measurement": "pIC50", "setting": "imipramin-fixation sites", "result": 4.70}, {"measurement": "3H-Flunitrazepam % Inhibition", "setting": "benzodiazepin-receptors; 1 × 10^-4 mole/l", "result": 49, "unit": "%"}, {"measurement": "3H-Flunitrazepam % Inhibition", "setting": "benzodiazepin-receptors; 1 × 10^-6 mole/l", "result": 2, "unit": "%"}, {"measurement": "pIC50", "setting": "benzodiazepin-receptors", "result": 4.22}]}, {"compound": "Cl.O=c1ccc(-c2ccc(Cn3ccnc3)s2)nn1CCN1CCOCC1", "note": "[E, 6-[5-(Imidazol-1-yl-methyl)-thien-2-yl]-2-(2-morpholino-ethyl)-3(2H)-pyridazinon-hydrochloride]", "values": [{"measurement": "3H-Imipramin % Inhibition", "setting": "imipramin-fixation sites; 1 × 10^-4", "result": 40, "unit": "%"}, {"measurement": "3H-Imipramin % Inhibition", "setting": "imipramin-fixation sites; 1 × 10^-6 mole/l", "result": 4, "unit": "%"}, {"measurement": "3H-Flunitrazepam % Inhibition", "setting": "benzodiazepin-receptors; 1 × 10^-4 mole/l", "result": 74, "unit": "%"}, {"measurement": "3H-Flunitrazepam % Inhibition", "setting": "benzodiazepin-receptors; 1 × 10^-6 mole/l", "result": 19, "unit": "%"}, {"measurement": "pIC50", "setting": "benzodiazepin-receptors", "result": 5.05}]}, {"compound": "Cl.O=c1ccc(-c2ccc(Cn3ccnc3)s2)nn1CCN1CCCCC1", "note": "[F, 6-[5-(Imidazol-1-yl-methyl)-thien-2-yl]-2-(2-piperidino-ethyl)-3(2H)-pyridazinon-hydrochloride]", "values": [{"measurement": "3H-Imipramin % Inhibition", "setting": "imipramin-fixation sites; 1 × 10^-4", "result": 62, "unit": "%"}, {"measurement": "3H-Imipramin % Inhibition", "setting": "imipramin-fixation sites; 1 × 10^-6 mole/l", "result": 7, "unit": "%"}, {"measurement": "pIC50", "setting": "imipramin-fixation sites", "result": 5.15}, {"measurement": "3H-Flunitrazepam % Inhibition", "setting": "benzodiazepin-receptors; 1 × 10^-4 mole/l", "result": 66, "unit": "%"}, {"measurement": "3H-Flunitrazepam % Inhibition", "setting": "benzodiazepin-receptors; 1 × 10^-6 mole/l", "result": 12, "unit": "%"}, {"measurement": "pIC50", "setting": "benzodiazepin-receptors", "result": 4.05}]}, {"compound": "O=c1ccc(-c2ccc(Cn3ccnc3)s2)n[nH]1", "note": "[Compound A, 6-[5-(Imidazol-1-yl-methyl)-thien-2-yl]-3(2H)-pyridazinone]", "values": [{"measurement": "activation at 100 µM", "setting": "[1]", "result": 19, "unit": "%"}, {"measurement": "activation at 100 µM", "setting": "[2]", "result": 44, "unit": "%"}, {"measurement": "Blood Pressure diast.", "setting": "narcotized cat; 0.1 mg/kg i.v.", "result": -1, "unit": "%"}, {"measurement": "Blood Pressure syst.", "setting": "narcotized cat; 0.1 mg/kg i.v.", "result": "+1%"}, {"measurement": "Myocardial Contractility", "setting": "narcotized cat; 0.1 mg/kg i.v.", "result": "+24%"}, {"measurement": "Pulse Frequency", "setting": "narcotized cat; 0.1 mg/kg i.v.", "result": "+1%"}, {"measurement": "Blood Pressure diast.", "setting": "narcotized cat; 0.316 mg/kg i.v.", "result": -6, "unit": "%"}, {"measurement": "Blood Pressure syst.", "setting": "narcotized cat; 0.316 mg/kg i.v.", "result": 0, "unit": "%"}, {"measurement": "Myocardial Contractility", "setting": "narcotized cat; 0.316 mg/kg i.v.", "result": "+32%"}, {"measurement": "Pulse Frequency", "setting": "narcotized cat; 0.316 mg/kg i.v.", "result": "+1%"}, {"measurement": "Blood Pressure diast.", "setting": "narcotized cat; 1.0 mg/kg i.v.", "result": -18, "unit": "%"}, {"measurement": "Blood Pressure syst.", "setting": "narcotized cat; 1.0 mg/kg i.v.", "result": -8, "unit": "%"}, {"measurement": "Myocardial Contractility", "setting": "narcotized cat; 1.0 mg/kg i.v.", "result": "+42%"}, {"measurement": "Pulse Frequency", "setting": "narcotized cat; 1.0 mg/kg i.v.", "result": -9, "unit": "%"}, {"measurement": "Blood Pressure diast.", "setting": "narcotized cat; 3.16 mg/kg i.v.", "result": -33, "unit": "%"}, {"measurement": "Blood Pressure syst.", "setting": "narcotized cat; 3.16 mg/kg i.v.", "result": -19, "unit": "%"}, {"measurement": "Myocardial Contractility", "setting": "narcotized cat; 3.16 mg/kg i.v.", "result": "+51%"}, {"measurement": "Pulse Frequency", "setting": "narcotized cat; 3.16 mg/kg i.v.", "result": -15, "unit": "%"}]}, {"compound": "CN1CCN=C(c2ccccc2)c2cc(Cl)ccc21", "note": "[Medazepam, reference compound]", "values": [{"measurement": "pIC50", "setting": "benzodiazepin-receptors", "result": 5.41}]}, {"compound": "Nc1cc(-c2ccncc2)c[nH]c1=O", "note": "[Compound B, 3-Amino-5-(4-pyridyl)-2-pyridone, reference compound]", "values": [{"measurement": "activation at 1000 µM", "setting": "[1]; [3]", "result": 20, "unit": "%"}, {"measurement": "activation at 100 µM", "setting": "[1]", "result": 2, "unit": "%"}, {"measurement": "activation at 1000 µM", "setting": "[2]; [3]", "result": 21, "unit": "%"}, {"measurement": "activation at 100 µM", "setting": "[2]", "result": 4, "unit": "%"}, {"measurement": "Blood Pressure diast.", "setting": "narcotized cat; 0.1 mg/kg i.v.", "result": -3, "unit": "%"}, {"measurement": "Blood Pressure syst.", "setting": "narcotized cat; 0.1 mg/kg i.v.", "result": -3, "unit": "%"}, {"measurement": "Myocardial Contractility", "setting": "narcotized cat; 0.1 mg/kg i.v.", "result": "+5%"}, {"measurement": "Pulse Frequency", "setting": "narcotized cat; 0.1 mg/kg i.v.", "result": 0, "unit": "%"}, {"measurement": "Blood Pressure diast.", "setting": "narcotized cat; 0.316 mg/kg i.v.", "result": -4, "unit": "%"}, {"measurement": "Blood Pressure syst.", "setting": "narcotized cat; 0.316 mg/kg i.v.", "result": -2, "unit": "%"}, {"measurement": "Myocardial Contractility", "setting": "narcotized cat; 0.316 mg/kg i.v.", "result": "+25%"}, {"measurement": "Pulse Frequency", "setting": "narcotized cat; 0.316 mg/kg i.v.", "result": "+1%"}, {"measurement": "Blood Pressure diast.", "setting": "narcotized cat; 1.0 mg/kg i.v.", "result": -22, "unit": "%"}, {"measurement": "Blood Pressure syst.", "setting": "narcotized cat; 1.0 mg/kg i.v.", "result": -15, "unit": "%"}, {"measurement": "Myocardial Contractility", "setting": "narcotized cat; 1.0 mg/kg i.v.", "result": "+40%"}, {"measurement": "Pulse Frequency", "setting": "narcotized cat; 1.0 mg/kg i.v.", "result": 0, "unit": "%"}, {"measurement": "Blood Pressure diast.", "setting": "narcotized cat; 3.16 mg/kg i.v.", "result": -51, "unit": "%"}, {"measurement": "Blood Pressure syst.", "setting": "narcotized cat; 3.16 mg/kg i.v.", "result": -35, "unit": "%"}, {"measurement": "Myocardial Contractility", "setting": "narcotized cat; 3.16 mg/kg i.v.", "result": "+30%"}, {"measurement": "Pulse Frequency", "setting": "narcotized cat; 3.16 mg/kg i.v.", "result": -20, "unit": "%"}]}, {"compound": "C[N+](C)([O-])CCC=C1c2ccccc2CCc2ccccc21", "note": "[Amitriptylinoxid, reference compound]", "values": [{"measurement": "pIC50", "setting": "imipramin-fixation sites", "result": 4.62}]}, {"compound": "Cc1cc(-c2ccccc2)nn(CCN2CCOCC2)c1=O.Cl", "note": "[H, 4-Methyl-2-(2-morpholino-ethyl)-6-phenyl-3(2H)-pyridazinon-hydrochloride, reference compound]", "values": [{"measurement": "3H-Imipramin % Inhibition", "setting": "imipramin-fixation sites; 1 × 10^-4", "result": 36, "unit": "%"}, {"measurement": "3H-Imipramin % Inhibition", "setting": "imipramin-fixation sites; 1 × 10^-6 mole/l", "result": 8, "unit": "%"}, {"measurement": "3H-Flunitrazepam % Inhibition", "setting": "benzodiazepin-receptors; 1 × 10^-4 mole/l", "result": 14, "unit": "%"}, {"measurement": "3H-Flunitrazepam % Inhibition", "setting": "benzodiazepin-receptors; 1 × 10^-6 mole/l", "result": 0, "unit": "%"}]}]}
